Molecules are shown by their SMILES. Non-standard residues stand in square brackets, D forms with d. Residues, ends and D or L forms follow the SMILES beside them. ξ: configuration not given here. *: point of attachment. ξNMe2Val = CC(C)C(C(=O)*)N(C)C; NMeV = CN[CH](C(=O)O)C(C)C; NHBn = c1ccc(CN*)cc1

The target of this assay is recombinant CpLDH protein (Cryptosporidium parvum, UniProt Q9GT92, F198L/K295E/R251K).
For `COC(=O)C1=CC(=O)C(C(=O)Nc2ccc(OC)cc2)C(c2ccccc2)O1` (stereo not drawn) [NSC634473], the “MEAN CpLDH INHIBITION (%)” value is on record as -29.85%. For `Cc1c(Cl)ccc2c1NC(=O)C2(O)C(C(=O)c1ccccc1)c1ccccc1` (stereo not drawn) [NSC635321] the value was -39.51%. Regarding `COc1ccccc1Cc1nc(-c2ccccc2)nn(C2OC(COC(C)=O)C(OC(C)=O)C(OC(C)=O)C2OC(C)=O)c1=S` (stereo not drawn) [NSC625873], the “MEAN CpLDH INHIBITION (%)” value was -25.33%. As for `O/N=C(/CC(O)(C(F)(F)F)C(F)(F)F)c1cccc(Cl)c1` [NSC664329], the “MEAN CpLDH INHIBITION (%)” value is reported as -28.29%. As to `O=c1ccc2ccc(CBr)cc2o1` [NSC99027], the “MEAN CpLDH INHIBITION (%)” value is listed as -71.89%.

On to `Cc1ccccc1NC(=O)C(=O)C(C(=O)c1ccccc1F)C1OC(=O)c2ccccc21` (stereo not drawn) [NSC641228], for which the “MEAN CpLDH INHIBITION (%)” value is on record as -51.30%.

On to `COc1cc2c(cc1O)N=CC1CCC(O)N1C2=O` (stereo not drawn) [NSC285223], for which the “MEAN CpLDH INHIBITION (%)” value was -56.39%. As for `O=c1cc(O)ccn1[C@@H]1O[C@H](CO)[C@@H](O)[C@H]1O` [NSC126849], the figure is -22.36%. Take `Cc1nc(-c2cccnc2)sc1C(=O)/C=C/c1ccc(Cl)cc1Cl` [NSC640580]: the “MEAN CpLDH INHIBITION (%)” value is reported as -13.66%. Take `Cc1ccc(S(=O)(=O)SC/C=C/CSS(=O)(=O)c2ccc(C)cc2)cc1` [NSC624158]: the “MEAN CpLDH INHIBITION (%)” value is on record as -8.09%. For the compound `COC1=C(N)C(=O)c2nc(C)ccc2C1=O` [NSC132493], the “MEAN CpLDH INHIBITION (%)” value is recorded as -117.70%. With `Cc1ccc2ccc3ccc(C)nc3c2n1` [NSC4280], the “MEAN CpLDH INHIBITION (%)” value is -27.03%. For the compound `C(=N\NC1=NCCN1)/c1c2ccccc2c(/C=N/NC2=NCCN2)c2ccccc12` [NSC337766], the “MEAN CpLDH INHIBITION (%)” value is -53.76%. With `O=C(ON=C1c2ccccc2C(Br)C(Br)c2ccccc21)c1ccccc1` (stereo not drawn) [NSC670140], the “MEAN CpLDH INHIBITION (%)” value is recorded as -63.78%. For `Cc1ccc(Cl)c2c(N=Nc3ccccc3[N+](=O)[O-])c(O)[nH]c12` [NSC118735] the value was -15.17%. Turning to `CCOC(=O)Nc1cc2c(c(N)n1)N=C(c1ccccc1)CN2` [NSC330770], the “MEAN CpLDH INHIBITION (%)” value is -9.40%. For `COc1ccc(S(=O)(=O)N/N=C/C(=O)O)cc1` [NSC267213] the value was -67.55%; for `C(=C/c1nc2ccccc2o1)/c1ccc2c(c1)OCO2` [NSC176655], -23.23%.

As to `O=C(/C=C/c1c(O)ccc2ccccc12)c1cccc(O)c1` [NSC636786], the “MEAN CpLDH INHIBITION (%)” value is -25.27%.

Take `CC(=O)c1sc2[n+](c1C)C(=O)/C(=C\c1ccccc1Cl)S2` [NSC658285]: the “MEAN CpLDH INHIBITION (%)” value is on record as -36.39%. For `COc1ccc(/C=C/c2cc(O)cc(O[C@@H]3O[C@H](CO)[C@@H](O)[C@H](O)[C@H]3O)c2)cc1O` [NSC43321], the “MEAN CpLDH INHIBITION (%)” value is recorded as -58.94%. For `S=C(Nc1ccccc1)N(/N=C/C=C/c1ccccc1)c1nnc(-c2ccccc2)c(-c2ccccc2)n1` [NSC640637] the value was -17.02%; for `CC(=O)O[C@]1(C(C)=O)CC[C@H]2[C@@H]3C[C@H](C)C4=CC(=O)C=C[C@]4(C)[C@@]3(F)[C@@H](O)C[C@@]21C` [NSC47438], -57.83%. As for `CCOC(=O)C1=C(C)NC(=S)NC1c1ccccc1` (stereo not drawn) [NSC643910], the “MEAN CpLDH INHIBITION (%)” value is on record as -38.49%. For `N#CC1CC(c2ccccc2)Nc2cc(Cl)ccc2N1` (stereo not drawn) [NSC155595] the value was -11.00%; for `O=C([O-])c1cc(I)cc(I)c1[OH2+].O=C([O-])c1cc(I)cc(I)c1[OH2+].[Mn+2]` [NSC619907], -115.80%; for `COc1ccc(N=C2C(=Nc3ccc(OC)cc3)N(c3ccc(N(C)C)cc3)C(=S)N2c2ccc(OC)cc2)cc1` [NSC671394], -158.34%.

With `COC(=O)Nc1nc2ccc(Br)cc2[nH]1` [NSC154754], the “MEAN CpLDH INHIBITION (%)” value is -36.36%. Turning to `C/C(=N\NC(=S)N1CCN(C2CCCCCC2)CC1)c1ccccn1` [NSC376265], the “MEAN CpLDH INHIBITION (%)” value is given as -34.26%. Turning to `CO[C@H]1Nc2c(ccc(C)c2O)C(=O)N2C=C(/C=C/C(N)=O)C[C@@H]12` [NSC106408], the “MEAN CpLDH INHIBITION (%)” value is -29.99%.

With `Cc1c(Cl)cccc1NC(=O)c1cccc([N+](=O)[O-])c1O` [NSC328477], the “MEAN CpLDH INHIBITION (%)” value is -31.70%. As for `[Cl][Pt+2][Cl].[NH-]C1CCCCC1[NH-]` (stereo not drawn) [NSC265459], the figure is -11.78%; as for `C[C@@H]1C[C@H]2OC(=O)[C@@]3(C)CCC[C@@](C)([C@@H]23)[C@@]1(O)CCc1ccoc1` [NSC36693], -16.69%; as for `Nc1nncs1` [NSC4728], -23.83%. With `COc1cc([C@@H]2c3cc4c(c(O)c3C[C@H]3COC(=O)[C@@H]32)OCO4)cc(OC)c1OC` [NSC24819], the “MEAN CpLDH INHIBITION (%)” value is -66.99%. As for `CC(C)c1ccc(O)c(=O)cc1` [NSC18805], the figure is -40.28%; as for `NC(=O)c1cn([C@@H]2O[C@H](CO)[C@@H](O)[C@H]2O)c2ncnc(N)c12` [NSC65346], -11.87%.

Take `Cc1ccccc1OCC(COC(=O)Nc1ccccc1)OC(=O)Nc1ccccc1` (stereo not drawn) [NSC635824]: the “MEAN CpLDH INHIBITION (%)” value was -3.02%. As for `COc1nc(C(Cl)(Cl)Cl)c(Cl)c(OC)c1Cl` [NSC338720], the figure is 0.02%. Regarding `NC(=O)N/N=C1\CC2C3CC4C2C4C13` (stereo not drawn) [NSC673912], the “MEAN CpLDH INHIBITION (%)” value is on record as -116.36%.

Consider `COc1ccc2nc3cc([N+](=O)[O-])ccc3c(NNc3ccccc3)c2c1` [NSC689872], for which the “MEAN CpLDH INHIBITION (%)” value is listed as -7.48%. As for `O=C1NC(c2cccc3ccccc23)Nc2ccc(Cl)cc21` (stereo not drawn) [NSC175636], the figure is -17.73%; as for `CC(Cc1ccccc1)NC1=NCCO1` (stereo not drawn) [NSC664298], -116.71%; as for `CC(=O)[O][Hg][c]1c(C)c(C)c(C)c(C)c1C` [NSC174176], -60.94%. In the case of `CC(C)C(NC(=O)C(C(C)C)N(C)C)C(=O)N(C)C(C(=O)N1CCCC1C(=O)N1CCCC1C(=O)NCc1ccccc1)C(C)C.Cl` (stereo not drawn) [NSC669356] (ξNMe2Val-V[NMeV]PP-NHBn; configuration not given here), the “MEAN CpLDH INHIBITION (%)” value is listed as -120.43%. As to `CN(C)c1ccc(/C=N/N=C2\C(=O)Nc3c(Cl)cc(Cl)cc32)cc1` [NSC327697], the “MEAN CpLDH INHIBITION (%)” value was -11.09%. As for `CN(C)c1ccc(/C=c2/sc3nc(=O)c(-c4ccccc4NC(=O)C(F)(F)F)nn3c2=O)cc1` [NSC623095], the “MEAN CpLDH INHIBITION (%)” value was -151.18%. With `C=C(C)C(=O)OC1CCC2(C)C(CCC3C2CCC2(C)C(c4ccc(=O)oc4)CC4OC432)C1` (stereo not drawn) [NSC267712], the “MEAN CpLDH INHIBITION (%)” value is reported as -57.63%.

In the case of `CC[C@](C)(O)C(=O)O[C@H]1C(=O)O[C@@H]2C[C@H]3C(C)=CC(=O)[C@@H](O)[C@]3(C)[C@H]3[C@@]4(O)OC[C@]32[C@@H]1[C@@H](C)[C@H]4O` [NSC132791], the “MEAN CpLDH INHIBITION (%)” value is listed as -161.16%. Regarding `CN(C)C(=S)/N=c1\ss/c(=N\C(=S)N(C)C)n1-c1ccc2c(c1)OCO2` [NSC622589], the “MEAN CpLDH INHIBITION (%)” value is listed as -7.95%. `COc1ccc(O)c2c(=O)c3c(OC)cc4c(c3oc12)[C@@H]1C=CO[C@@H]1O4` [NSC178249]: the “MEAN CpLDH INHIBITION (%)” value is listed as -31.06%. With `N#CC(C#N)=Cc1ccc(Oc2ccccc2)cc1` [NSC643028], the “MEAN CpLDH INHIBITION (%)” value was -52.45%. For `COc1ccc(C2c3cc4c(c(OC)c3CC3OCC(=O)C32)OCO4)cc1OC` (stereo not drawn) [NSC126727] the value was -5.88%; for `Cl.Nc1ccc2cc3ccc(N)cc3nc2c1` [NSC605756], -35.77%; for `CC1CCCC(C(=O)/C(=C/c2cccc(Cl)c2)C(=O)C(=O)O)C1` (stereo not drawn) [NSC636084], -20.56%.

In the case of `COC(=O)C(=O)C(C(=O)C(=O)Nc1cc(C)ccc1C)c1nc2ccc(C(=O)c3ccccc3)cc2[nH]c1=O` (stereo not drawn) [NSC642040], the “MEAN CpLDH INHIBITION (%)” value is given as -9.38%. Regarding `COc1cccc2c1cc([N+](=O)[O-])c1c(C(=O)O)cc3c(c12)OCO3` [NSC11926], the “MEAN CpLDH INHIBITION (%)” value is -19.30%. For `N#CC(C#N)=Cc1cccc(Oc2ccccc2)c1` [NSC643031], the “MEAN CpLDH INHIBITION (%)” value was -51.68%. On to `O=C1C(=O)c2ccccc2C(O)=C1CCCc1ccc(Oc2ccccc2)cc1` [NSC377], for which the “MEAN CpLDH INHIBITION (%)” value was -0.53%. Regarding `Cc1ccc(C2NC(=O)c3ccccc3N2)s1` (stereo not drawn) [NSC175634], the “MEAN CpLDH INHIBITION (%)” value is listed as -31.59%. Turning to `Cc1c2ccncc2c(C)c2c1sc1ccccc12` [NSC119686], the “MEAN CpLDH INHIBITION (%)” value was -46.09%.

Take `CCCCCCCCCCCCCCCC[N+](C)(C)Cc1ccc(F)cc1.[Cl-]` [NSC693172]: the “MEAN CpLDH INHIBITION (%)” value is -0.60%. For `Cc1ccc([S+](c2ccccc2)c2cc(C)ccc2C)cc1.O=C(OC(C(=O)[O-])C(OC(=O)c1ccccc1)C(=O)O)c1ccccc1` (stereo not drawn) [NSC116693], the “MEAN CpLDH INHIBITION (%)” value is recorded as -151.85%.

As for `CCOC(=O)Cc1cc(=O)oc2cc(O)ccc12` [NSC667235], the “MEAN CpLDH INHIBITION (%)” value is -25.51%. `O=S1(=O)CCN(c2ccccc2CC(c2c[nH]c3ccccc23)c2c[nH]c3ccccc23)CC1` [NSC35949]: the “MEAN CpLDH INHIBITION (%)” value was -34.03%. As for `COc1ccc(OC)c2nc3c(C(=O)NCCN(C)C)cccc3nc12.Cl` [NSC678917], the figure is -41.85%.

`N#Cc1ccccc1NC(=O)C(=O)C(C(=O)c1ccccc1F)C1OC(=O)c2ccccc21` (stereo not drawn) [NSC640974]: the “MEAN CpLDH INHIBITION (%)” value was -7.97%.

`Nc1nc(N)c(-c2cccc(C(F)(F)F)c2)c(Cc2cccc(C(F)(F)F)c2)n1` [NSC71669]: the “MEAN CpLDH INHIBITION (%)” value is -53.065%. For `Oc1cc(-n2cccn2)c(O)cc1-n1cccn1` [NSC645987] the value was -40.48%; for `Cn1c(=O)c2nc3sc4c(n3c2n(C)c1=O)C(=O)c1ccccc1C4=O` [NSC634568], -8.97%; for `C=C1C(=O)OC2C1CC1OC2C(C)CCC/C(C)=C\CCC1(C)O` (stereo not drawn) [NSC282752], -63.64%. In the case of `CC(C)(C)NCCC(O)c1cc(C(F)(F)F)nc2c(C(F)(F)F)cccc12.O=P(O)(O)O` (stereo not drawn) [NSC305819], the “MEAN CpLDH INHIBITION (%)” value was -15.30%.

These data come from paper PMC6687188, “Novel lactate dehydrogenase inhibitors with in vivo efficacy against Cryptosporidium parvum” (PLoS Pathogens, 2019).
